In PubChem BioAssay (NCI):
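The compound was tested at five concentrations on cells cultured in 96-well plates, with a 48-hour exposure period. GI50: concentration for 50% inhibition of growth. TGI denotes the concentration required for complete inhibition of growth.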

test system: SK-MEL-5 melanoma; test: inhibition of tumour cell growth, NCI panel, 48 h

Compared with `CC(=O)OC[C@]1(C)C=C2C(=O)[C@](C)(O)C3(CC3)C(C)=C2[C@H]1O`, `CC(C)(C)OC(=O)N1CCc2c(sc3ncnc(N/N=C/c4cccc5ccccc45)c23)C1` is 25-fold higher in GI50: 0.137 µM for the first, 3.36 µM for the second.

Going from `Oc1ccc(NCc2nc3ccccc3[nH]2)cc1` to `O=C1c2cc(Cl)ccc2S(=O)(=O)c2c(NCCCNCCO)nc3ccccc3c21`, the GI50 falls from 72.4 µM to 2.5 µM (29-fold).

Going from `CCN(CC)c1ccc(/C=C/c2ccc3cc(C)ccc3[n+]2CC)cc1` to `O=c1[nH]ncc(Br)c1Br`, the GI50 rises from 0.0493 µM to 4.38 µM (89-fold).

Going from `CC(=O)OC[C@]1(C)C=C2C(=O)[C@](C)(O)C3(CC3)C(C)=C2[C@H]1O` to `CC[C@@H]1CN(C)[C@H]2Cc3c([nH]c4ccccc34)C(=O)C[C@H]1C2C(=O)OC` (stereo partly drawn), the TGI rises from 0.3 µM to over 100 µM.

Compared with `Oc1ccc(NCc2nc3ccccc3[nH]2)cc1`, `O=C1c2cc(Cl)ccc2S(=O)(=O)c2c(NCCCNCCO)nc3ccccc3c21` is lower in TGI: over 100 µM for the first, 6.48 µM for the second.

First: C[C@]12CC[C@H]3[C@@H](CC=C4C[C@@H](O)CC[C@@]43C)[C@@H]1CC[C@@H]2N(CCO)CCO
Second: COC1/C=C\C=C(/C)C(=O)NC2=CC(=O)C(=O)C(=C2O)CC(C)CC(OC)C(O)C(C)/C=C(\C)C1OC(N)=O (stereo not drawn)
The TGI of the first is higher: over 100 µM for the first, 43.7 µM for the second.

Compared with `CC(C)(C)OC(=O)N1CCc2c(sc3ncnc(N/N=C/c4cccc5ccccc45)c23)C1`, `COc1ccc(-c2cc(=O)c3c(OC)c(OC)c(OC)cc3o2)cc1` is 3.9-fold higher in TGI: 11.1 µM for the first, 43.3 µM for the second.

Going from `CCN(CC)c1ccc(/C=C/c2ccc3cc(C)ccc3[n+]2CC)cc1` to `Cc1ccc2c(c1)[n+]([O-])c(N)n[n+]2[O-]`, the TGI rises from 0.261 µM to over 100 µM.

Compound `O=c1[nH]ncc(Br)c1Br` has a TGI of 15.9 µM.

test system: SK-OV-3 ovarian; test: inhibition of tumour cell growth, NCI panel, 48 h

Going from `CC[CH2][Sn]([CH2]CC)([O]C(=O)c1cccnc1SC)[O][Sn]([CH2]CC)([CH2]CC)[O]C(=O)c1cccnc1SC` to `O=C1c2cc(Cl)ccc2S(=O)(=O)c2c(NCCCNCCO)nc3ccccc3c21`, the GI50 rises from 1.53 µM to 8.54 µM (5.6-fold).

`Oc1ccc(CN2CCC(N3CCCCC3)CC2)c2cccnc12` and `Oc1ccc(NCc2nc3ccccc3[nH]2)cc1` are within 1.5-fold of each other in GI50: 24.8 µM for the first, 32.1 µM for the second.

First: CC[C@@]1(O)C(=O)OCc2c1cc1n(c2=O)Cc2c-1nc1cc3c(cc1c2CCl)OCO3
Second: CC(C)(C)OC(=O)N1CCc2c(sc3ncnc(N/N=C/c4cccc5ccccc45)c23)C1
The GI50 of the first is lower: under 0.01 µM for the first, 4 µM for the second.

Going from `N#Cc1ccc(O)c(C2=NCC(c3cccc(Oc4ccccc4)c3)O2)c1` (stereo not drawn) to `COc1cc(C2=C(c3ccccc3)COC2=O)cc(OC)c1OC`, the GI50 rises from 1.58 µM to 4.56 µM (2.9-fold).

Compared with `CC1(C)OC2[C@@H](CNC(=O)NC(=O)NC(=O)CI)O[C@@H](n3cnc4c(NC(=O)Nc5ccccc5)ncnc43)[C@H]2O1` (stereo partly drawn), `CS(=O)(=O)c1ccc([C@H]2O[C@@H](CO)C[C@]2(O)c2ccc(S(C)(=O)=O)cc2)cc1` is higher in GI50: 22.2 µM for the first, over 100 µM for the second.

First: COc1cc(C2NC(=O)c3ccccc3N2)ccc1OCCCCCOc1c(OC)cc(C2=NOC(c3cc(OC)c(OC)c(OC)c3)C2)cc1OC (stereo not drawn)
Second: CCN(CC)c1ccc(/C=C/c2ccc3cc(C)ccc3[n+]2CC)cc1
The GI50 of the first is 220-fold higher: 31.1 µM for the first, 0.141 µM for the second.

Going from `CC(=O)OC[C@]1(C)C=C2C(=O)[C@](C)(O)C3(CC3)C(C)=C2[C@H]1O` to `O=c1[nH]ncc(Br)c1Br`, the GI50 rises from 0.194 µM to 13.9 µM (72-fold).

First: CC[CH2][Sn]([CH2]CC)([O]C(=O)c1cccnc1SC)[O][Sn]([CH2]CC)([CH2]CC)[O]C(=O)c1cccnc1SC
Second: O=C1c2cc(Cl)ccc2S(=O)(=O)c2c(NCCCNCCO)nc3ccccc3c21
The TGI of the first is 5.8-fold lower: 3.61 µM for the first, 20.9 µM for the second.

`Oc1ccc(CN2CCC(N3CCCCC3)CC2)c2cccnc12` and `Oc1ccc(NCc2nc3ccccc3[nH]2)cc1` cannot be ordered by TGI: over 100 µM for the first, over 100 µM for the second.

First: CC[C@@]1(O)C(=O)OCc2c1cc1n(c2=O)Cc2c-1nc1cc3c(cc1c2CCl)OCO3
Second: CC(C)(C)OC(=O)N1CCc2c(sc3ncnc(N/N=C/c4cccc5ccccc45)c23)C1
The TGI of the first is lower: 1.07 µM for the first, over 100 µM for the second.

Compared with `N#Cc1ccc(O)c(C2=NCC(c3cccc(Oc4ccccc4)c3)O2)c1` (stereo not drawn), `COc1cc(C2=C(c3ccccc3)COC2=O)cc(OC)c1OC` is higher in TGI: 21.3 µM for the first, over 100 µM for the second.

`CC1(C)OC2[C@@H](CNC(=O)NC(=O)NC(=O)CI)O[C@@H](n3cnc4c(NC(=O)Nc5ccccc5)ncnc43)[C@H]2O1` (stereo partly drawn) and `CS(=O)(=O)c1ccc([C@H]2O[C@@H](CO)C[C@]2(O)c2ccc(S(C)(=O)=O)cc2)cc1` cannot be ordered by TGI: over 50 µM for the first, over 100 µM for the second.

Compared with `COc1cc(C2NC(=O)c3ccccc3N2)ccc1OCCCCCOc1c(OC)cc(C2=NOC(c3cc(OC)c(OC)c(OC)c3)C2)cc1OC` (stereo not drawn), `COc1ccc(-c2cc(=O)c3c(OC)c(OC)c(OC)cc3o2)cc1` is lower in TGI: over 100 µM for the first, 88.2 µM for the second.

First: CC(=O)OC[C@]1(C)C=C2C(=O)[C@](C)(O)C3(CC3)C(C)=C2[C@H]1O
Second: CC[C@@H]1CN(C)[C@H]2Cc3c([nH]c4ccccc34)C(=O)C[C@H]1C2C(=O)OC (stereo partly drawn)
The TGI of the first is lower: 1.11 µM for the first, over 100 µM for the second.

`C[C@]12CC[C@H]3[C@@H](CC=C4C[C@@H](O)CC[C@@]43C)[C@@H]1CC[C@@H]2N(CCO)CCO` and `COC1/C=C\C=C(/C)C(=O)NC2=CC(=O)C(=O)C(=C2O)CC(C)CC(OC)C(O)C(C)/C=C(\C)C1OC(N)=O` (stereo not drawn) cannot be ordered by TGI: over 100 µM for the first, over 100 µM for the second.

Going from `CCN(CC)c1ccc(/C=C/c2ccc3cc(C)ccc3[n+]2CC)cc1` to `Cc1ccc2c(c1)[n+]([O-])c(N)n[n+]2[O-]`, the TGI rises from 0.732 µM to over 100 µM.

Compound `O=c1[nH]ncc(Br)c1Br` has a TGI of 26.8 µM.

test system: UO-31 renal; test: inhibition of tumour cell growth, NCI panel, 48 h

`CC[CH2][Sn]([CH2]CC)([O]C(=O)c1cccnc1SC)[O][Sn]([CH2]CC)([CH2]CC)[O]C(=O)c1cccnc1SC` and `O=C1c2cc(Cl)ccc2S(=O)(=O)c2c(NCCCNCCO)nc3ccccc3c21` are within 1.5-fold of each other in GI50: 0.844 µM for the first, 1.13 µM for the second.

First: Oc1ccc(CN2CCC(N3CCCCC3)CC2)c2cccnc12
Second: Oc1ccc(NCc2nc3ccccc3[nH]2)cc1
The GI50 of the first is lower: 6.2 µM for the first, over 100 µM for the second.

First: CC[C@@]1(O)C(=O)OCc2c1cc1n(c2=O)Cc2c-1nc1cc3c(cc1c2CCl)OCO3
Second: CC(C)(C)OC(=O)N1CCc2c(sc3ncnc(N/N=C/c4cccc5ccccc45)c23)C1
The GI50 of the first is lower: under 0.01 µM for the first, 2.68 µM for the second.

Compared with `N#Cc1ccc(O)c(C2=NCC(c3cccc(Oc4ccccc4)c3)O2)c1` (stereo not drawn), `COc1cc(C2=C(c3ccccc3)COC2=O)cc(OC)c1OC` is 17-fold higher in GI50: 0.449 µM for the first, 7.77 µM for the second.

Compared with `CC1(C)OC2[C@@H](CNC(=O)NC(=O)NC(=O)CI)O[C@@H](n3cnc4c(NC(=O)Nc5ccccc5)ncnc43)[C@H]2O1` (stereo partly drawn), `CS(=O)(=O)c1ccc([C@H]2O[C@@H](CO)C[C@]2(O)c2ccc(S(C)(=O)=O)cc2)cc1` is higher in GI50: 1.34 µM for the first, over 100 µM for the second.

First: COc1cc(C2NC(=O)c3ccccc3N2)ccc1OCCCCCOc1c(OC)cc(C2=NOC(c3cc(OC)c(OC)c(OC)c3)C2)cc1OC (stereo not drawn)
Second: CCN(CC)c1ccc(/C=C/c2ccc3cc(C)ccc3[n+]2CC)cc1
The GI50 of the first is 22-fold higher: 15.1 µM for the first, 0.691 µM for the second.

Compared with `CC(=O)OC[C@]1(C)C=C2C(=O)[C@](C)(O)C3(CC3)C(C)=C2[C@H]1O`, `O=c1[nH]ncc(Br)c1Br` is 16-fold higher in GI50: 0.114 µM for the first, 1.87 µM for the second.

`CC[CH2][Sn]([CH2]CC)([O]C(=O)c1cccnc1SC)[O][Sn]([CH2]CC)([CH2]CC)[O]C(=O)c1cccnc1SC` and `O=C1c2cc(Cl)ccc2S(=O)(=O)c2c(NCCCNCCO)nc3ccccc3c21` are within 1.5-fold of each other in TGI: 2.14 µM for the first, 2.36 µM for the second.

First: Oc1ccc(CN2CCC(N3CCCCC3)CC2)c2cccnc12
Second: Oc1ccc(NCc2nc3ccccc3[nH]2)cc1
The TGI of the first is lower: 34.6 µM for the first, over 100 µM for the second.

First: CC[C@@]1(O)C(=O)OCc2c1cc1n(c2=O)Cc2c-1nc1cc3c(cc1c2CCl)OCO3
Second: CC(C)(C)OC(=O)N1CCc2c(sc3ncnc(N/N=C/c4cccc5ccccc45)c23)C1
The TGI of the first is 20-fold lower: 0.756 µM for the first, 14.9 µM for the second.

Going from `N#Cc1ccc(O)c(C2=NCC(c3cccc(Oc4ccccc4)c3)O2)c1` (stereo not drawn) to `COc1cc(C2=C(c3ccccc3)COC2=O)cc(OC)c1OC`, the TGI rises from 2.75 µM to over 49.9 µM.

Compared with `CC1(C)OC2[C@@H](CNC(=O)NC(=O)NC(=O)CI)O[C@@H](n3cnc4c(NC(=O)Nc5ccccc5)ncnc43)[C@H]2O1` (stereo partly drawn), `CS(=O)(=O)c1ccc([C@H]2O[C@@H](CO)C[C@]2(O)c2ccc(S(C)(=O)=O)cc2)cc1` is higher in TGI: 4.27 µM for the first, over 100 µM for the second.

First: COc1cc(C2NC(=O)c3ccccc3N2)ccc1OCCCCCOc1c(OC)cc(C2=NOC(c3cc(OC)c(OC)c(OC)c3)C2)cc1OC (stereo not drawn)
Second: COc1ccc(-c2cc(=O)c3c(OC)c(OC)c(OC)cc3o2)cc1
The TGI of the first is higher: over 100 µM for the first, 87.7 µM for the second.

Compared with `CC(=O)OC[C@]1(C)C=C2C(=O)[C@](C)(O)C3(CC3)C(C)=C2[C@H]1O`, `CC[C@@H]1CN(C)[C@H]2Cc3c([nH]c4ccccc34)C(=O)C[C@H]1C2C(=O)OC` (stereo partly drawn) is higher in TGI: 0.273 µM for the first, over 100 µM for the second.

First: C[C@]12CC[C@H]3[C@@H](CC=C4C[C@@H](O)CC[C@@]43C)[C@@H]1CC[C@@H]2N(CCO)CCO
Second: COC1/C=C\C=C(/C)C(=O)NC2=CC(=O)C(=O)C(=C2O)CC(C)CC(OC)C(O)C(C)/C=C(\C)C1OC(N)=O (stereo not drawn)
The TGI of the first is higher: over 100 µM for the first, 39.8 µM for the second.

Compared with `CCN(CC)c1ccc(/C=C/c2ccc3cc(C)ccc3[n+]2CC)cc1`, `Cc1ccc2c(c1)[n+]([O-])c(N)n[n+]2[O-]` is higher in TGI: 7.45 µM for the first, over 100 µM for the second.

`O=c1[nH]ncc(Br)c1Br` was tested, and the TGI was 4.51 µM.
